The test system of series [1] is Corn Earworm (CEW) (Helicoverpa zea). Put plainly: Bioassay on corn earworm (CEW), 128-well diet tray assay. Format: in vivo. As to conditions: Corn earworm, 50 μg/cm^2; for pest or weed control at 50 µg/cm2, 50 µg/cm2: Helicoverpa zea, read-out: % Mortality CEW 50 μg/cm^2. The gist of the method:
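Second-instar Helicoverpa zea larvae (one to five per well) placed on artificial diet treated with 50 μg/cm^2 compound in 90:10 acetone-water, dried, eight wells per compound. Held at 25 °C, 14:10 light-dark, five to seven days; percent mortality averaged over wells.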

Series [2] deals with Beet Armyworm (BAW) (Spodoptera exigua). As to the kind of experiment: Bioassay on beet armyworm (BAW), 128-well diet tray assay. The series is classed as in vivo. The conditions noted are these: Beet armyworm, 50 μg/cm^2; for pest or weed control at 50 µg/cm2, 50 µg/cm2: Spodoptera exigua, read-out: % Mortality BAW 50 μg/cm^2. The gist of the method:
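Second-instar Spodoptera exigua larvae, one to five per well, on artificial diet treated with 50 μg/cm^2 compound in 90:10 acetone-water and dried, eight wells per compound. Held at 25 °C, 14:10 light-dark for five to seven days; percent mortality averaged over wells.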

The test system of series [3] is Green Peach Aphid (GPA) (Myzus persicae). As to the kind of experiment: Bioassay on green peach aphid (GPA), foliar spray on cabbage seedlings. The series is classed as in vivo. The conditions noted are these: 72 h, read-out: % Mortality GPA 200 ppm.

One may read the melting point as the temperature of the solid-liquid transition. `CC(F)(F)c1ccc(-n2cnc(-c3ccc(C=O)cc3)n2)cc1` [Compound I-62]: the melting point fell in the range of 139 to 141 °C.
In the case of `CC(C)c1cc(F)ccc1NC(=S)NN` [Compound I-47], the melting point fell in the range of 163 to 217 °C.
In turn, `CC(C)c1c(F)cccc1NC(=S)NN` [Compound I-51] showed a melting point of 158 to 160 °C.
As to `CC(C)c1ccccc1NC(=S)N/N=C/c1ccc(-c2ncn(-c3ccc4c(c3)OC(F)(F)O4)n2)cc1` [Compound I-36], the melting point was 200 °C (dec.).
Still for that read-out and setting: to `CC(C)c1ccc(F)cc1NC(=S)NN` [Compound I-43] belongs 133 to 135 °C; to `CC(C)c1ccccc1NC(=S)N/N=C/c1ccc(-c2ncn(-c3ccc(OC(F)(F)C(F)(F)F)cc3)n2)cc1` [Compound I-33], 214 to 216 °C.
`COc1ccccc1N1CCS/C1=N\N=C\c1ccc(-c2ncn(-c3ccc(OC(F)(F)F)cc3)n2)cc1` [Compound 140C]: the pest or weed control at 50 µg/cm2, 50 µg/cm2 in series [1] and in series [2] was 50 to 100% each time. Further, the pest or weed control at 200 ppm in series [3] is 0 to 80%.
In the case of `Cc1cccc(C)c1/N=C(/N/N=C/c1ccc(-c2ncn(-c3ccc(OC(F)(F)F)cc3)n2)cc1)SCC(=O)NCCCNC(=O)OC(C)(C)C` [Compound 58C], the pest or weed control at 50 µg/cm2, 50 µg/cm2 in series [1] and in series [2] was 50 to 100% in each case. Moreover, the pest or weed control at 200 ppm in series [3] lay in the range of 0 to 80%.
For the compound `CC(C)c1ccccc1N1C(=O)CS/C1=N\N=C\c1ccc(-c2ncn(-c3ccc(OC(F)(F)F)cc3)n2)cc1` [Compound 73C], the pest or weed control at 50 µg/cm2, 50 µg/cm2 in series [1] and in series [2] was 50 to 100% throughout. The pest or weed control at 200 ppm in series [3] fell in the range of 0 to 80%.
As to `Cc1cccc(C)c1/N=C(/N/N=C/c1ccc(-c2ncn(-c3ccc(OC(F)(F)F)cc3)n2)cc1)SCOC(=O)C1CCCC1` [Compound 35C], the pest or weed control at 50 µg/cm2, 50 µg/cm2 in series [1] and in series [2] was 50 to 100% throughout. Moreover, the pest or weed control at 200 ppm in series [3] was 0 to 80%.
Regarding `Fc1cccc(Cl)c1N1CCCS/C1=N\N=C\c1ccc(-c2ncn(-c3ccc(OC(F)(F)F)cc3)n2)cc1` [Compound 188C], the pest or weed control at 50 µg/cm2, 50 µg/cm2 in series [1] and in series [2] was 50 to 100% in each case. Besides, in series [3], the pest or weed control at 200 ppm lay within 0 to 80%.
Consider `CCc1cccc(C)c1N1/C(=N/N=C/c2ccc(-c3ncn(-c4ccc(OC(F)(F)F)cc4)n3)cc2)SCC1C` (stereo not drawn) [Compound 156C], for which the pest or weed control at 50 µg/cm2, 50 µg/cm2 in series [1] and in series [2] was 50 to 100% each time. The pest or weed control at 200 ppm in series [3] lay within 0 to 80%.
`CCc1cccc(C)c1N1/C(=N/N=C/c2ccc(-c3ncn(-c4ccc(OC(F)(F)F)cc4)n3)cc2)SCCC1C` (stereo not drawn) [Compound 213C]: the pest or weed control at 50 µg/cm2, 50 µg/cm2 in series [1] and in series [2] was 50 to 100% in each case. Further, the pest or weed control at 200 ppm in series [3] lay within 0 to 80%.
As to `Cc1cccc(C)c1/N=C(/N/N=C/c1ccc(-c2ncn(-c3ccc(OC(F)(F)F)cc3)n2)cc1)SC/C=C/Br` [Compound 4C], the pest or weed control at 50 µg/cm2, 50 µg/cm2 in series [1] and in series [2] was 50 to 100% each time. In series [3], the pest or weed control at 200 ppm lay within 0 to 80%.
For `COc1ccc(C)cc1N1CCCS/C1=N\N=C\c1ccc(-c2ncn(-c3ccc(OC(F)(F)F)cc3)n2)cc1` [Compound 204C], the pest or weed control at 50 µg/cm2, 50 µg/cm2 in series [1] and in series [2] was 50 to 100% throughout. The pest or weed control at 200 ppm in series [3] lay within 0 to 80%.
In the case of `O=C1CS/C(=N\N=C\c2ccc(-c3ncn(-c4ccc(OC(F)(F)F)cc4)n3)cc2)N1c1ccccc1C1CC1` [Compound 112C], the pest or weed control at 50 µg/cm2, 50 µg/cm2 in series [1] and in series [2] was 50 to 100% in each case. Also, the pest or weed control at 200 ppm in series [3] is 0 to 80%.
In the case of `Cc1cccc(C)c1/N=C(/N/N=C/c1ccc(-c2ncn(-c3ccc(OC(F)(F)F)cc3)n2)cc1)SCc1cc2c(C(F)(F)F)nn(C)c2s1` [Compound 19C], the pest or weed control at 50 µg/cm2, 50 µg/cm2 in series [1] and in series [2] was 50 to 100% in each case. In series [3], the pest or weed control at 200 ppm is 0 to 80%.
In the case of `Cc1cccc(C)c1N1C(=O)CS/C1=N\N=C\c1ccc(-c2ncn(-c3ccc(OC(F)(F)F)cc3)n2)cc1` [Compound 72C], the “% Mortality CEW 50 μg/cm^2” value in series [1] is given as “A (50-100)”. In series [2], the “% Mortality BAW 50 μg/cm^2” value is “A (50-100)”. Besides, the pest or weed control at 200 ppm in series [3] fell in the range of 0 to 80%.
`Cc1cccc(Cl)c1N1/C(=N/N=C/c2ccc(-c3ncn(-c4ccc(OC(F)(F)F)cc4)n3)cc2)SCC1C` (stereo not drawn) [Compound 158C]: the pest or weed control at 50 µg/cm2, 50 µg/cm2 in series [1] and in series [2] was 50 to 100% throughout. In addition, the pest or weed control at 200 ppm in series [3] is 0 to 80%.
Take `Cc1cccc(C)c1/N=C(/N/N=C/c1ccc(-c2ncn(-c3ccc(OC(F)(F)F)cc3)n2)cc1)SCC(=O)N1CCN(C(=O)OC(C)(C)C)CC1` [Compound 57C]: the pest or weed control at 50 µg/cm2, 50 µg/cm2 in series [1] and in series [2] was 50 to 100% each time. Besides, the pest or weed control at 200 ppm in series [3] was 0 to 80%.
Take `Cc1cccc(C)c1/N=C(/N/N=C/c1ccc(-c2ncn(-c3ccc(OC(F)(F)F)cc3)n2)cc1)SCC(=O)O` [Compound 47C]: the pest or weed control at 50 µg/cm2, 50 µg/cm2 in series [1] and in series [2] was 50 to 100% throughout. Moreover, in series [3], the pest or weed control at 200 ppm was in the range of 0 to 80%.
On to `O=C1CS/C(=N\N=C\c2ccc(-c3ncn(-c4ccc(OC(F)(F)F)cc4)n3)cc2)N1c1c(F)cccc1Cl` [Compound 95C], for which the pest or weed control at 50 µg/cm2, 50 µg/cm2 in series [1] and in series [2] was 50 to 100% in each case. Moreover, in series [3], the pest or weed control at 200 ppm is 0 to 80%.
Regarding `COc1cc(C)c(/N=C(/N/N=C/c2ccc(-c3ncn(-c4ccc(OC(F)(F)F)cc4)n3)cc2)SCOC(=O)C2CCCC2)c(C)c1` [Compound 43C], the pest or weed control at 50 µg/cm2, 50 µg/cm2 in series [1] and in series [2] was 50 to 100% throughout. In addition, in series [3], the pest or weed control at 200 ppm fell in the range of 0 to 80%.
As to `Cc1ncccc1N1CCCS/C1=N\N=C\c1ccc(-c2ncn(-c3ccc(OC(F)(F)F)cc3)n2)cc1` [Compound 205C], the pest or weed control at 50 µg/cm2, 50 µg/cm2 in series [1] and in series [2] was 50 to 100% throughout. In addition, in series [3], the pest or weed control at 200 ppm is 0 to 80%.
Regarding `COc1ccc(N2CCCS/C2=N\N=C\c2ccc(-c3ncn(-c4ccc(OC(F)(F)F)cc4)n3)cc2)c(C)c1` [Compound 192C], the pest or weed control at 50 µg/cm2, 50 µg/cm2 in series [1] and in series [2] was 50 to 100% throughout. Further, the pest or weed control at 200 ppm in series [3] was 0 to 80%.
With `Cc1cccc(C)c1/N=C(/N/N=C/c1ccc(-c2ncn(-c3ccc(OC(F)(F)F)cc3)n2)cc1)SCc1ccc(S(N)(=O)=O)cc1` [Compound 13C], the pest or weed control at 50 µg/cm2, 50 µg/cm2 in series [1] and in series [2] was 50 to 100% throughout. Further, the pest or weed control at 200 ppm in series [3] lay in the range of 0 to 80%.
In the case of `Cc1cccc(C)c1/N=C(/N/N=C/c1ccc(-c2ncn(-c3ccc(OC(F)(F)F)cc3)n2)cc1)SCc1cccc2nsnc12` [Compound 14C], the pest or weed control at 50 µg/cm2, 50 µg/cm2 in series [1] and in series [2] was 50 to 100% in each case. In series [3], the pest or weed control at 200 ppm lay in the range of 0 to 80%.
Consider `FC(F)(F)Oc1ccc(-n2cnc(-c3ccc(/C=N/N=C4\SCCN4c4ccccc4C4CC4)cc3)n2)cc1` [Compound 145C], for which the pest or weed control at 50 µg/cm2, 50 µg/cm2 in series [1] and in series [2] was 50 to 100% each time. Besides, the pest or weed control at 200 ppm in series [3] fell in the range of 0 to 80%.
Consider `O=C1CS/C(=N\N=C\c2ccc(-c3ncn(-c4ccc(OC(F)(F)F)cc4)n3)cc2)N1c1ccccc1-c1ccccc1` [Compound 96C], for which the pest or weed control at 50 µg/cm2, 50 µg/cm2 in series [1] and in series [2] was 50 to 100% throughout. Also, the pest or weed control at 200 ppm in series [3] lay within 0 to 80%.
